The record followed here is ChEMBL document CHEMBL1201862, “PubChem BioAssay data set” (2004).

Activity calls are given as the source filed them.

Assay [1] deals with Procathepsin L (Homo sapiens, UniProt P07711). The experiment in a line: cathepsin L inhibitors, dose response, counter-screen for M1/M17 aminopeptidase inhibitor project, biochemical, QFRET, 1536-well (AID 2214). On the technique in general: Counterscreens check selectivity or assay interference.
Assay [2] addresses T1, Aminopeptidase N (Plasmodium falciparum FcB1/Columbia, UniProt O96935).
T1 sequence (O96935 whole entry): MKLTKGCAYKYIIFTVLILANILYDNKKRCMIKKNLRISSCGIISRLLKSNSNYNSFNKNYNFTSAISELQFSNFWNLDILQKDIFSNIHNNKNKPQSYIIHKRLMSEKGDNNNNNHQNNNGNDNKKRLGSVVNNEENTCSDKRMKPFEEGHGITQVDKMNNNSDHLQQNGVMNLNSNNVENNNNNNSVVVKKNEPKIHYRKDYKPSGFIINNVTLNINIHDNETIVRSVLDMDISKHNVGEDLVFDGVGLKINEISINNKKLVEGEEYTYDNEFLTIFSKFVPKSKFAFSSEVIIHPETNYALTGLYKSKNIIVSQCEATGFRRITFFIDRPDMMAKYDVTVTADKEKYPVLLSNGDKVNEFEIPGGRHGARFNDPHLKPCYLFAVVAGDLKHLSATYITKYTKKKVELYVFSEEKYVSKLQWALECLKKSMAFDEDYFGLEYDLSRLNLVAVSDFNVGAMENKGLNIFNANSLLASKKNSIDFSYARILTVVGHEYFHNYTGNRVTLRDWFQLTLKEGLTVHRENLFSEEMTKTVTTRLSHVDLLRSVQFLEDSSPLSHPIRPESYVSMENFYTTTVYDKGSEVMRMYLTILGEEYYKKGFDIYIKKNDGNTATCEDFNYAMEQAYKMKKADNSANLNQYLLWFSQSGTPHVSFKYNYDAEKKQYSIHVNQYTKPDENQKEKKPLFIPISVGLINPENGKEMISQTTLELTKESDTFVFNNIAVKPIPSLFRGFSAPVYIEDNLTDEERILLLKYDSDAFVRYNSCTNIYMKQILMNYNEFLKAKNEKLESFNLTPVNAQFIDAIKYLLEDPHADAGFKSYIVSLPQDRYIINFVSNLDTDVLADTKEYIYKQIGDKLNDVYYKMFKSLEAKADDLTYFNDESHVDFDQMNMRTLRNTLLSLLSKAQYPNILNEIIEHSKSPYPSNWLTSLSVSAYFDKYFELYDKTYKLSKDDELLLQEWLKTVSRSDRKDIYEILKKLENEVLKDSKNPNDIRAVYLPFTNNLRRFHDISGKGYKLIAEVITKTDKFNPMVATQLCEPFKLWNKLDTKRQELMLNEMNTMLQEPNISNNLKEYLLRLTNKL
The experiment in a line: P. falciparum M1AAP inhibitors, biochemical, fluorogenic H-Leu-NHMec substrate, 1536-well (AID 1445). Details: species or system Plasmodium falciparum 3D7, 3D7.

The target in assay [3] is T2, Aspartyl aminopeptidase (Plasmodium falciparum 3D7, UniProt Q8I2J3).
T2 sequence (Q8I2J3 whole entry): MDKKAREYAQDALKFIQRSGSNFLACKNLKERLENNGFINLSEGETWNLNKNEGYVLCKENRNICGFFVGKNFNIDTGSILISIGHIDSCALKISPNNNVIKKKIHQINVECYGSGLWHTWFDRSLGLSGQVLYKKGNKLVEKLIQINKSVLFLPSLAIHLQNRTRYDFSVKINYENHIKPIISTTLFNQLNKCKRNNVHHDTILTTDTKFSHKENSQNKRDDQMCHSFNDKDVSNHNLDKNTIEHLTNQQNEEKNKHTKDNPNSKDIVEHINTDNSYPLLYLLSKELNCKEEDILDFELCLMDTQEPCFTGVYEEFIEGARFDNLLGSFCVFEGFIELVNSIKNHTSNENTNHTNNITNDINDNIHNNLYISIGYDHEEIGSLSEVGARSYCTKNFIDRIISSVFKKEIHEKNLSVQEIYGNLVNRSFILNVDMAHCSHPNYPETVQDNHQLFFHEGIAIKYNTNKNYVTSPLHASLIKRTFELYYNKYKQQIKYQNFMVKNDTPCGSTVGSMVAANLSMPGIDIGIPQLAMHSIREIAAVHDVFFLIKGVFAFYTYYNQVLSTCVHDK
The experiment in a line: Counterscreen for inhibitors of M1 and M17 aminopeptidases: QFRET-based biochemical high throughput dose response assay for inhibitors of the Plasmodium falciparum M18 Aspartyl Aminopeptidase (PFM18AAP). [Related PubChem assays: 1619 (Screening assay (M17LAP inhibitors).), 1445 (Screening assay (M1AAP inhibitors).)].

Assay [4] can be described thus: cytotoxicity toward NIH3T3 fibroblasts, dose response, counter-screen, cell-based, ATP luminescence, mouse fibroblasts (AID 2010).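 Also: cells exposed to compound for about 90 hours before reading.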 The class given is functional.
For assay [5], the target named is Sphingosine 1-phosphate receptor 2 (Homo sapiens, UniProt O95136). The experiment in a line: Dose Response Cell Based Assay for Antagonists of the S1P2 Receptor. [Related pubchem assays: 856, 736 ]. Type of assay: functional.
Chain of Sphingosine 1-phosphate receptor 2 (O95136 whole entry): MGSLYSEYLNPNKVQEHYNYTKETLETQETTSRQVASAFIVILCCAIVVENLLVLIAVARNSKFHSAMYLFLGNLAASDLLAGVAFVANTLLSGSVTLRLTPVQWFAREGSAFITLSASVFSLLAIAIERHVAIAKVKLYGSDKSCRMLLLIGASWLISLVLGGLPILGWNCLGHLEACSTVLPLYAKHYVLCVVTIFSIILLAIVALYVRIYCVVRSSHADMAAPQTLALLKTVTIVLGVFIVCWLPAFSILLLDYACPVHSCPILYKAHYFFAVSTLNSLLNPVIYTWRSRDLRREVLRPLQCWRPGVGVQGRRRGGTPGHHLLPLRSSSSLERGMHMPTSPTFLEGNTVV
Assay [6] is described as follows: inhibitors of intracellular T. cruzi replication, confirmation, NIH3T3 host cells, beta-gal luminescence (AID 2044).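 Also: intracellular parasites grown in NIH/3T3 mouse fibroblasts as host cells; luminescent beta-galactosidase reporter signal from transgenic T. cruzi replicating inside host cells; inhibitors lower the luminescence signal.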 The class given is functional, cell-based.
The target of assay [7] is T3, Aryl hydrocarbon receptor (Homo sapiens, UniProt P35869).
T3 sequence (P35869 whole entry): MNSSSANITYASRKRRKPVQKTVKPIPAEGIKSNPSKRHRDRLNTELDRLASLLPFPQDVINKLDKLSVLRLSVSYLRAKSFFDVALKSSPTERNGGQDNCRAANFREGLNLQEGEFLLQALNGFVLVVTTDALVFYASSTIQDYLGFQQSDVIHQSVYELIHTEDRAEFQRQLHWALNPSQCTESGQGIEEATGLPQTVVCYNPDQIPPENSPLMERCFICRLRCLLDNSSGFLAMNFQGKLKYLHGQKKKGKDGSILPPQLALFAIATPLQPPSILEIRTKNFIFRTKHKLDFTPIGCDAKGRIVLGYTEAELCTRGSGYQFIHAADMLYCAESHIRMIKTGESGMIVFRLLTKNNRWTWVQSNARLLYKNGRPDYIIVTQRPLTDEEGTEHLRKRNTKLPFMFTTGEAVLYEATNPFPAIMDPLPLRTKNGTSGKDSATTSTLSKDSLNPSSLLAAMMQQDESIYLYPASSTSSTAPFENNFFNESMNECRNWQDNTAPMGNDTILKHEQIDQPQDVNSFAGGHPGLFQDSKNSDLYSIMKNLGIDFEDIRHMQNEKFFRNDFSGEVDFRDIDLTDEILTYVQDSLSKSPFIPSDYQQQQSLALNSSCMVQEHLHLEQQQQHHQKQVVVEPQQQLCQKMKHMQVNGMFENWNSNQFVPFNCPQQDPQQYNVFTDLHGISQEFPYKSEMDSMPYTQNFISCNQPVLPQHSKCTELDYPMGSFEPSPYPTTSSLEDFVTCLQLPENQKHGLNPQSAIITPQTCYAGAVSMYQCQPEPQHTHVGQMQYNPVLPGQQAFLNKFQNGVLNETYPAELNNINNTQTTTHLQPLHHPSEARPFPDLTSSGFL
Description: Luminescence-based cell-based high throughput dose response assay for activators of the Aryl Hydrocarbon Receptor (AHR). [Related pubchem assays: 2796 (Primary screen (AHR activators in singlicate)), 2845 (Confirmation screen (AHR activators in triplicate)), 434939 (Counterscreen (PXR activators in triplicate)), 2804 (Summary (AHR activators))]. Type of assay: ADME.

Assay [8] in a line: Jurkat T cell cytotoxicity, dose response, cytotoxicity control for P. falciparum gametocyte viability project, luminescence (AID 1117277).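 Also: potency reflects loss of cellular ATP meaning fewer viable cells.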 Type of assay: functional, cell-based.
A short description of assay [9]: P. falciparum late gametocyte killing, dose response, luminescence (AID 1117278).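 Also: gametocytes exposed to compound for 24 hours.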 The class given is functional, cell-based.
Assay [10] deals with Mitogen-activated protein kinase 10 (Homo sapiens, UniProt P53779). Description: Dose response biochemical screening assay for inhibitors of c-Jun N-Terminal Kinase 3 (JNK3). [Related pubchem assays: 746 ].
Chain of Mitogen-activated protein kinase 10 (P53779 whole entry): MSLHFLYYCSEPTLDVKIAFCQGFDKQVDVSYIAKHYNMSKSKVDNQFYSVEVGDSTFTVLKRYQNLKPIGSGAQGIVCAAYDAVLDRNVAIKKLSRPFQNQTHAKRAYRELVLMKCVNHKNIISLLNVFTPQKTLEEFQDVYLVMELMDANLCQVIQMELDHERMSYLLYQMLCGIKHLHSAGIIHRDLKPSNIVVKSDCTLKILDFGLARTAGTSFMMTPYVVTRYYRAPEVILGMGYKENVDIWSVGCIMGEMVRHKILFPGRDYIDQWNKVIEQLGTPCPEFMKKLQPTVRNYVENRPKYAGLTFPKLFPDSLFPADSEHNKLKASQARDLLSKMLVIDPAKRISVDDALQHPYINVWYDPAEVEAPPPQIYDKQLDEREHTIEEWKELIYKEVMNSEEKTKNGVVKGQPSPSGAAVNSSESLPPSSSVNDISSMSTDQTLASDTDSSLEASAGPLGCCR

Chain of Procathepsin L (P07711 whole entry): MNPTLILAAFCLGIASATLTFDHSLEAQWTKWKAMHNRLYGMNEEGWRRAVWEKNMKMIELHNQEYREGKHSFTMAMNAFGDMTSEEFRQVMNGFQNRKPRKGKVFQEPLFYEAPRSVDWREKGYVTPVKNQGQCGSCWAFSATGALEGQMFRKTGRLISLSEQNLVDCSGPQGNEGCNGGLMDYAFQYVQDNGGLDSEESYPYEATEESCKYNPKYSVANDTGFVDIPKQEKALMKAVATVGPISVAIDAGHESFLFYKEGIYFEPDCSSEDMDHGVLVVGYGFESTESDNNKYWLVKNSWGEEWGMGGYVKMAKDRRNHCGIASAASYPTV

Usually IC50 stands for the concentration needed to halve the response being measured. As to `CC(C)(C)c1nc2ccccc2c(=O)n1N1C(=O)c2ccccc2C1=O`, the IC50 in [1] is > 59.6 µM (not active); in assay [2], 16.1 µM (active); in assay [3] it was > 73.5 µM (not active).
Broadly, the EC50 is the concentration giving half of the maximal effect. Take `Cn1c(-c2c(N)n(CCCc3ccccc3)c3nc4ccccc4nc23)nc2ccccc21`: the values for the concentration giving a half-maximal response (EC50) in assay [4] and in assay [6] were > 30 µM (not active) and 1.17 µM (active), respectively. Further, the IC50 in assay [5] was 8 µM (active).
Turning to `COc1ccccc1NC(=O)c1ccc(C(=O)Nc2ccccc2OC)nc1`, the EC50 in assay [7] is 0.0686 µM (active).
As for `O=C(Cc1ccc(-c2ccccc2)cc1)NC1CCCC1`, the figures for the IC50 in [8] and in assay [9] were > 83.2 µM (inactive) and > 109 µM (inactive), respectively.
`COC(=O)c1c(C#N)c(N)nc2c1CCCC2`: in assay [10], the IC50 is listed as 60.1 µM (not active).
